# Like-named read-outs stand apart in the source and are kept apart here.
# Experiments:
# [1] = tested on: K. pneumoniae A9977; test: M.I.C. by tube dilution; type: cell-based; conditions: at 10^-^4 dilution, overnight 37° C.; for MIC: Klebsiella pneumoniae, A9977
# [2] = tested on: S. aureus A9748; test: M.I.C. by tube dilution; type: cell-based; conditions: overnight 37° C.; for MIC: Staphylococcus aureus
# [3] = tested on: Str. pyogenes A9604; test: M.I.C. by tube dilution; type: cell-based; conditions: Streptococcus pyogenes, Str. pyogenes + 5% serum, 50% Nutrient Broth - 45% Antibiotic Assay Broth, overnight 37° C.
# [4] = tested on: Pr. morganii A15153; test: M.I.C. by tube dilution; type: cell-based; conditions: Morganella morganii
# [5] = tested on: K. pneumoniae A15130; test: M.I.C. by tube dilution; type: cell-based; conditions: at 10^-^4 dilution, overnight 37° C.; for MIC: Klebsiella pneumoniae, A15130
# [6] = Blood levels in the mouse after oral administration; type: in vivo; conditions: mouse, oral, 100 mgm./kg.; for concentration at 0.5 h / concentration at 1 h / concentration at 2 h / concentration at 3.5 h: blood, 100 mg/kg, read-out: Blood Level; for concentration at 1 h: 1 hr. after administration; for concentration at 2 h: 2 hrs. after administration; for concentration at 3.5 h: 3.5 hrs. after administration
# Method: Blood levels in the mouse after oral administration were
# determined with the following results:
# [7] = tested on: Ps. aeruginosa A9843A; test: M.I.C. by tube dilution; type: cell-based; conditions: Pseudomonas aeruginosa
# [8] = tested on: S. aureus BX 1633-2 A9606; test: M.I.C. by tube dilution; type: cell-based; conditions: overnight 37° C.; for MIC: Staphylococcus aureus
# [9] = tested on: Pr. mirabilis A9900; test: M.I.C. by tube dilution; type: cell-based; conditions: at 10^-^4 dilution, overnight 37° C.; for MIC: Proteus mirabilis, A9900
# [10] = tested on: E. coli Juhl A15119; test: M.I.C. by tube dilution; type: cell-based; conditions: Escherichia coli, JUHLA15119
# [11] = tested on: Sal. enteritidis A9531; test: M.I.C. by tube dilution; type: cell-based; conditions: at 10^-^4 dilution, overnight 37° C.; for MIC: Salmonella enterica, ENTERITIDIS
# [12] = tested on: S. aureus Smith A9537; test: M.I.C. by tube dilution; type: cell-based; conditions: Staphylococcus aureus, overnight 37° C.
# [13] = tested on: E. coli A9675; test: M.I.C. by tube dilution; type: cell-based; conditions: at 10^-^4 dilution, overnight 37° C.; for MIC: Escherichia coli, A9675
# [14] = tested on: D. pneumoniae A9585; test: M.I.C. by tube dilution; type: cell-based; conditions: Streptococcus pneumoniae, D. pneumoniae + 5% serum, 50% Nutrient Broth - 45% Antibiotic Assay Broth, overnight 37° C.
# [15] = tested on: S. aureus methicillin-resistant A15097; test: M.I.C. by tube dilution; type: cell-based; conditions: at 10^-^3 dilution, overnight 37° C.; for MIC: Staphylococcus aureus
# [16] = tested on: Ser. marcescens A20019; test: M.I.C. by tube dilution; type: cell-based; conditions: Serratia marcescens
# [17] = A9748, at 10^-^2 dilution, read-out: M.I.C.
# [18] = A9748, at 10^-^3 dilution, read-out: M.I.C.
# [19] = at 10^-^4 dilution, overnight 37° C., read-out: M.I.C.
# [20] = BX16332A9606, at 10^-^2 dilution, read-out: M.I.C.
# [21] = BX16332A9606, at 10^-^3 dilution, read-out: M.I.C.
# [22] = SMITHA9537, + 50% serum, at 10^-^4 dilution, read-out: M.I.C.
# [23] = SMITHA9537, at 10^-^4 dilution, read-out: M.I.C.
compound,measurement,setting,value
"N[C@@H](C(=O)NC1C(=O)N2C(C(=O)O)=C(CSC(=O)c3cscn3)CS[C@H]12)c1ccccc1 (stereo partly drawn) [Compound 591, 7-[D-(-)α-aminophenylacetamido]-3-(thiazol-4-yl)carbonylthiomethyl-3-cephem-4-carboxylic acid]",MIC,[1]; read-out: M.I.C.,1 mg/L
same,MIC,[2]; [17],16 mg/L
same,MIC,[2]; [18],4 mg/L
same,MIC,[3],0.02 mg/L
same,MIC,[4]; [19],32 mg/L
same,MIC,[5]; read-out: M.I.C.,8 mg/L
same,concentration at 0.5 h,[6]; 0.5 hrs. after administration,6.5 µg/mL
same,concentration at 1 h,[6],7.9 µg/mL
same,concentration at 2 h,[6],4.4 µg/mL
same,concentration at 3.5 h,[6],3.2 µg/mL
same,MIC,[7],> 125 mg/L
same,MIC,[8]; [20],2 mg/L
same,MIC,[8]; [21],0.6 mg/L
same,MIC,[9]; read-out: M.I.C.,1 mg/L
same,MIC,[10]; [19],1 mg/L
same,MIC,[11]; read-out: M.I.C.,0.16 mg/L
same,MIC,[12]; [22],8 mg/L
same,MIC,[12]; [23],0.3 mg/L
same,MIC,[13]; read-out: M.I.C.,4 mg/L
same,MIC,[14],0.02 mg/L
same,MIC,[15],2 mg/L
same,MIC,[16],125 mg/L
"N[C@@H](C(=O)NC1C(=O)N2C(C(=O)O)=C(CSC(=O)c3cncs3)CS[C@H]12)c1ccccc1 (stereo partly drawn) [Compound 602, 7-[D-(-)-α-aminophenylacetamido]-3-(thiazol-5-yl)carbonylthiomethyl-3-cephem-4-carboxylic acid]",MIC,[1]; read-out: M.I.C.,16 mg/L
same,MIC,[2]; [17],63 mg/L
same,MIC,[2]; [18],8 mg/L
same,MIC,[3],0.6 mg/L
same,MIC,[4],125 mg/L
same,MIC,[5]; read-out: M.I.C.,32 mg/L
same,concentration at 0.5 h,[6]; 0.5 hrs. after administration,11.7 µg/mL
same,concentration at 1 h,[6],17.6 µg/mL
same,concentration at 2 h,[6],9.7 µg/mL
same,concentration at 3.5 h,[6],3.3 µg/mL
same,MIC,[7],> 125 mg/L
same,MIC,[8]; [20],16 mg/L
same,MIC,[8]; [21],1.3 mg/L
same,MIC,[9]; read-out: M.I.C.,16 mg/L
same,MIC,[10]; [19],4 mg/L
same,MIC,[11]; read-out: M.I.C.,0.3 mg/L
same,MIC,[12]; [22],> 63 mg/L
same,MIC,[12]; [23],0.3 mg/L
same,MIC,[13]; read-out: M.I.C.,16 mg/L
same,MIC,[14],0.6 mg/L
same,MIC,[15],4 mg/L
same,MIC,[16],> 125 mg/L
"Cc1nc(C(=O)SCC2=C(C(=O)O)N3C(=O)C(NC(=O)[C@H](N)c4ccccc4)[C@H]3SC2)cs1 (stereo partly drawn) [Compound 607, 7-[D-α-aminophenylacetamido]-3-(2-methylthiazol-4-yl)carbonylthiomethyl-3-cephem-4-carboxylic acid]",MIC,[1]; read-out: M.I.C.,16 mg/L
same,MIC,[2]; [17],16 mg/L
same,MIC,[2]; [18],8 mg/L
same,MIC,[3],0.16 mg/L
same,MIC,[4]; [19],32 mg/L
same,MIC,[5],125 mg/L
same,concentration at 0.5 h,[6]; 0.5 hrs. after administration,1.2 µg/mL
same,concentration at 1 h,[6],1.4 µg/mL
same,concentration at 2 h,[6],1.3 µg/mL
same,concentration at 3.5 h,[6],1 µg/mL
same,Blood Level,[6]; 0.5 hrs. after administration,1.2 µg/mL
same,MIC,[7],> 125 mg/L
same,MIC,[8]; [20],4 mg/L
same,MIC,[8]; [21],0.6 mg/L
same,MIC,[9]; read-out: M.I.C.,8 mg/L
same,MIC,[10]; [19],8 mg/L
same,MIC,[11]; read-out: M.I.C.,0.6 mg/L
same,MIC,[12]; [22],63 mg/L
same,MIC,[12]; [23],0.3 mg/L
same,MIC,[13]; read-out: M.I.C.,16 mg/L
same,MIC,[14],0.16 mg/L
same,MIC,[15],8 mg/L
same,MIC,[16],> 125 mg/L
"CC1=C(C(=O)O)N2C(=O)[C@@H](NC(=O)[C@H](N)c3ccccc3)[C@H]2SC1 [cephalexin, reference compound]",MIC,[1],8 mg/L
same,M.I.C.,[1],4 µg/mL
same,MIC,"[2]; A9748, at 10^-^2 dilution",125 mg/L
same,MIC,"[2]; A9748, at 10^-^3 dilution",32 mg/L
same,M.I.C.,[2]; at 10^-^2 dilution,63 µg/mL
same,M.I.C.,[2]; at 10^-^3 dilution,63 µg/mL
same,MIC,[4],> 125 mg/L
same,MIC,[5],16 mg/L
same,M.I.C.,[5],32 µg/mL
same,MIC,[7],> 125 mg/L
same,MIC,"[8]; BX16332A9606, at 10^-^2 dilution",8 mg/L
same,MIC,"[8]; BX16332A9606, at 10^-^3 dilution",4 mg/L
same,M.I.C.,[8]; at 10^-^2 dilution,4 µg/mL
same,M.I.C.,[8]; at 10^-^3 dilution,2 µg/mL
same,MIC,[9],4 mg/L
same,M.I.C.,[9],8 µg/mL
same,MIC,[10],8 mg/L
same,MIC,[11],4 mg/L
same,M.I.C.,[11],2 µg/mL
same,MIC,"[12]; SMITHA9537, + 50% serum, at 10^-^4 dilution",2.5 mg/L
same,MIC,[13],16 mg/L
same,M.I.C.,[13],32 µg/mL
same,MIC,[15],32 mg/L
same,M.I.C.,[15],63 µg/mL
same,MIC,[16],> 125 mg/L

# From patent US3985740A, “7-[D-(α-amino-α-phenyl-, 2-thienyl- and 3-thienylacetamido)]-3-(5-methylthiazol-2-yl)carbonylthiomethyl-3-cephem -4-carboxylic acids” (Bristol-Myers Company, priority 1974, dated 1976)
